In ChEMBL document CHEMBL5512667, “Discovery of Potent, Selective, and Orally Available IRE1α Inhibitors Demonstrating Comparable PD Modulation to IRE1 Knockdown in a Multiple Myeloma Model” (J Med Chem, 2024):
pIC50: −log10 of the molar value. Values after ≈ are worked out from the molar mass of the structure shown. Active and inactive are the calls of the source. The calls are words filed in the database; no cut-off is given here.

Test system: not listed separately
Assay: Apparent permeability across apical to basolateral side in MDCK cells at 10 uM incubated for 3 hrs by LC-MS/MS method
Assay type: ADME, cell-based, Canis lupus familiaris
Details: dog

| SMILES | Papp A→B at 3 h, 10 µM [×10⁻⁶ cm/s] |
| --- | --- |
| O=S(=O)(Cc1ccccc1)Nc1c(F)cc(Oc2ncccc2-c2ccnc(N[C@H]3CCCNC3)n2)c(F)c1F | 1.4 |
| O=S(=O)(Cc1ccccc1)Nc1c(F)cc(Oc2ncccc2-c2ccnc(N[C@@H]3CNC[C@@H](F)C3)n2)c(F)c1F | 8.7 |
| C[C@@]1(F)CNC[C@@H](Nc2nccc(-c3cccnc3Oc3cc(F)c(NS(=O)(=O)Cc4ccccc4)c(F)c3F)n2)C1 | 7.3 |
| Cc1cc(Oc2ncccc2-c2ccnc(N[C@H]3CCCNC3)n2)c(F)c(F)c1NS(=O)(=O)Cc1ccccc1 | 2.8 |

Test system: not listed separately
Assay: Selectivity ratio of inhibition of HIPK4 (unknown origin) to inhibition of IRE1alpha (unknown origin)
Details: not given

| SMILES | Selectivity ratio |
| --- | --- |
| O=S(=O)(Cc1ccccc1)Nc1c(F)cc(Oc2ncccc2-c2ccnc(N[C@@H]3CNC[C@@H](F)C3)n2)c(F)c1F | 83 |

Target: T1, Serine/threonine-protein kinase/endoribonuclease IRE1 (Homo sapiens, UniProt O75460)
Assay: Inhibition of IRE1alpha RNase activity (unknown origin) using XBP1 as substrate preincubated for 1 hr followed by thapsigargin stimulation for 5 hrs by One-Glo luciferase reagent based luminescence assay
Details: not given
Target sequence in this assay (O75460 whole entry): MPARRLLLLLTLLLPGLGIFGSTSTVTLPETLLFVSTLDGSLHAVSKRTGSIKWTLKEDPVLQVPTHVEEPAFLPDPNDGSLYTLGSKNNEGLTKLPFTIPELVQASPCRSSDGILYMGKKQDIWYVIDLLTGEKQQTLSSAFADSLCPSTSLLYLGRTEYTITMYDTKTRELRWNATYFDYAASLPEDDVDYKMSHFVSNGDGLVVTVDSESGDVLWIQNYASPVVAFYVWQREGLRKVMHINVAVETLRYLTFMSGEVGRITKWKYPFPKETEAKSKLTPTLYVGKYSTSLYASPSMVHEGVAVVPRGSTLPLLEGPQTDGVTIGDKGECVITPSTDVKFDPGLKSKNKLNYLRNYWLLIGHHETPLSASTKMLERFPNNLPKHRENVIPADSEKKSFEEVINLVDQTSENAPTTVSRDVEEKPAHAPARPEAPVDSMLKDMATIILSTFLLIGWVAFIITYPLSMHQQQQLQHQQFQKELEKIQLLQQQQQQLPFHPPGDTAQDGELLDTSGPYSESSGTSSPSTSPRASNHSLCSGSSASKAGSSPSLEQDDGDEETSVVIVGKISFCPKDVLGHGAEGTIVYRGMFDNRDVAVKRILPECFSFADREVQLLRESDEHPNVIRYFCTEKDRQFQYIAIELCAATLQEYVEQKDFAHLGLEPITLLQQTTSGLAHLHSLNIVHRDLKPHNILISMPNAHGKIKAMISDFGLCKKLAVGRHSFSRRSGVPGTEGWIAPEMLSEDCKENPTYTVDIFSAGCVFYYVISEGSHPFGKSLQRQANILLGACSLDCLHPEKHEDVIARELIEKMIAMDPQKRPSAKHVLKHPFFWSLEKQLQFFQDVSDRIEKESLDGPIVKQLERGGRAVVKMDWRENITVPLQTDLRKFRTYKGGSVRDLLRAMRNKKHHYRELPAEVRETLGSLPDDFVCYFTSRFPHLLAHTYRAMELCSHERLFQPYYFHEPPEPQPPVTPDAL

| SMILES | pIC50 |
| --- | --- |
| O=S(=O)(Cc1ccccc1)Nc1c(F)cc(Oc2ncccc2-c2ccnc(N[C@H]3CCCNC3)n2)c(F)c1F | 7.33 |
| O=S(=O)(Cc1ccccc1)Nc1c(F)cc(Oc2ncccc2-c2ccnc(N[C@@H]3CNC[C@@H](F)C3)n2)c(F)c1F | 7.49 |
| C[C@@]1(F)CNC[C@@H](Nc2nccc(-c3cccnc3Oc3cc(F)c(NS(=O)(=O)Cc4ccccc4)c(F)c3F)n2)C1 | 7.66 |
| Cc1cc(Oc2ncccc2-c2ccnc(N[C@H]3CCCNC3)n2)c(F)c(F)c1NS(=O)(=O)Cc1ccccc1 | 7.36 |

Target: T1, Serine/threonine-protein kinase/endoribonuclease IRE1
Assay: Inhibition of IRE1alpha RNase activity (Q470 to L977 residues) (unknown origin) expressed in Sf9 cells using mini-XBP-1 stem-loop RNA as substrate measured every 2 mins interval for 50 mins by FRET assay
Details: not given
Target sequence in this assay (O75460 whole entry): as above

| SMILES | pIC50 |
| --- | --- |
| O=S(=O)(Cc1ccccc1)Nc1c(F)cc(Oc2ncccc2-c2ccnc(N[C@H]3CCCNC3)n2)c(F)c1F | 8.35 |
| O=S(=O)(Cc1ccccc1)Nc1c(F)cc(Oc2ncccc2-c2ccnc(N[C@@H]3CNC[C@@H](F)C3)n2)c(F)c1F | 8.37 |
| C[C@@]1(F)CNC[C@@H](Nc2nccc(-c3cccnc3Oc3cc(F)c(NS(=O)(=O)Cc4ccccc4)c(F)c3F)n2)C1 | 8.13 |
| Cc1cc(Oc2ncccc2-c2ccnc(N[C@H]3CCCNC3)n2)c(F)c(F)c1NS(=O)(=O)Cc1ccccc1 | 8.35 |

Target: T1, Serine/threonine-protein kinase/endoribonuclease IRE1
Assay: Inhibition of His-tagged IRE1alpha (G547 to L977 residues) (unknown origin) expressed in Sf9 cells preincubated with anti-His Europium labeled antibody for 1 hr prior to compound addition followed by tracer 236 addition and measured after 1 hr by TR-FRET assay
Details: not given
Target sequence in this assay (O75460 whole entry): as above

| SMILES | pIC50 |
| --- | --- |
| O=S(=O)(Cc1ccccc1)Nc1c(F)cc(Oc2ncccc2-c2ccnc(N[C@H]3CCCNC3)n2)c(F)c1F | 8.51 |
| O=S(=O)(Cc1ccccc1)Nc1c(F)cc(Oc2ncccc2-c2ccnc(N[C@@H]3CNC[C@@H](F)C3)n2)c(F)c1F | 9.57 |
| C[C@@]1(F)CNC[C@@H](Nc2nccc(-c3cccnc3Oc3cc(F)c(NS(=O)(=O)Cc4ccccc4)c(F)c3F)n2)C1 | 9.23 |
| Cc1cc(Oc2ncccc2-c2ccnc(N[C@H]3CCCNC3)n2)c(F)c(F)c1NS(=O)(=O)Cc1ccccc1 | 9.54 |

Test system: not listed separately
Assay: Toxicity in Sprague-Dawley rat assessed as hepatocellular hypertrophy at >= 150 mg/kg, po administered twice daily for 7 days
Assay type: organism-based
Details: in vivo, 168 h, time 7 day

| SMILES | Activity |
| --- | --- |
| O=S(=O)(Cc1ccccc1)Nc1c(F)cc(Oc2ncccc2-c2ccnc(N[C@@H]3CNC[C@@H](F)C3)n2)c(F)c1F | Toxic |

Test system: not listed separately
Assay: Toxicity in Sprague-Dawley rat assessed as increase in hepatic weight at >= 150 mg/kg, po administered twice daily for 7 days
Assay type: organism-based
Details: in vivo, 168 h, time 7 day

| SMILES | Activity |
| --- | --- |
| O=S(=O)(Cc1ccccc1)Nc1c(F)cc(Oc2ncccc2-c2ccnc(N[C@@H]3CNC[C@@H](F)C3)n2)c(F)c1F | Toxic |

Test system: not listed separately
Assay: Toxicity in Sprague-Dawley rat assessed as increase in hepatic enzyme level at 500 mg/kg, po administered twice daily for 7 days
Assay type: organism-based
Details: in vivo, 168 h, time 7 day

| SMILES | Activity |
| --- | --- |
| O=S(=O)(Cc1ccccc1)Nc1c(F)cc(Oc2ncccc2-c2ccnc(N[C@@H]3CNC[C@@H](F)C3)n2)c(F)c1F | Toxic |

Test system: not listed separately
Assay: Toxicity in Sprague-Dawley rat assessed as tolerability upto 500 mg/kg, po administered twice daily for 7 days
Assay type: organism-based
Details: in vivo, 168 h, time 7 day

| SMILES | Activity |
| --- | --- |
| O=S(=O)(Cc1ccccc1)Nc1c(F)cc(Oc2ncccc2-c2ccnc(N[C@@H]3CNC[C@@H](F)C3)n2)c(F)c1F | Non-Toxic |

Test system: not listed separately
Assay: Plasma protein binding in mouse incubated for 4 hrs by LC-MS/MS based rapid equilibrium dialysis method
Assay type: ADME, cell-free
Details: read-out: PPB (converted)

| SMILES | fraction unbound at 4 h |
| --- | --- |
| O=S(=O)(Cc1ccccc1)Nc1c(F)cc(Oc2ncccc2-c2ccnc(N[C@@H]3CNC[C@@H](F)C3)n2)c(F)c1F | 0.029 |
| C[C@@]1(F)CNC[C@@H](Nc2nccc(-c3cccnc3Oc3cc(F)c(NS(=O)(=O)Cc4ccccc4)c(F)c3F)n2)C1 | 0.009 |

Test system: not listed separately
Assay: Kinetic solubility of compound at pH 7.4
Assay type: physicochemical
Details: buffer, read-out: Kinetic_solubility

| SMILES | solubility kinetic [µM] |
| --- | --- |
| O=S(=O)(Cc1ccccc1)Nc1c(F)cc(Oc2ncccc2-c2ccnc(N[C@@H]3CNC[C@@H](F)C3)n2)c(F)c1F | 65 (≈ 38.3 µg/mL) |
| C[C@@]1(F)CNC[C@@H](Nc2nccc(-c3cccnc3Oc3cc(F)c(NS(=O)(=O)Cc4ccccc4)c(F)c3F)n2)C1 | 46 (≈ 27.7 µg/mL) |

Test system: not listed separately
Assay: Volume of distribution at steady state in CD-1 mouse at 10 mg/kg, po or 1 mg/kg, iv measured upto 24 hrs by LC-MS/MS analysis
Assay type: ADME, organism-based
Details: in vivo

| SMILES | Vdss [L/kg] |
| --- | --- |
| O=S(=O)(Cc1ccccc1)Nc1c(F)cc(Oc2ncccc2-c2ccnc(N[C@@H]3CNC[C@@H](F)C3)n2)c(F)c1F | 1.05 |
| C[C@@]1(F)CNC[C@@H](Nc2nccc(-c3cccnc3Oc3cc(F)c(NS(=O)(=O)Cc4ccccc4)c(F)c3F)n2)C1 | 1.04 |

Test system: not listed separately
Assay: Half-life in CD-1 mouse at 10 mg/kg, po or 1 mg/kg, iv measured upto 24 hrs by LC-MS/MS analysis
Assay type: ADME, organism-based
Details: in vivo

| SMILES | half-life [h] |
| --- | --- |
| O=S(=O)(Cc1ccccc1)Nc1c(F)cc(Oc2ncccc2-c2ccnc(N[C@@H]3CNC[C@@H](F)C3)n2)c(F)c1F | 0.55 |
| C[C@@]1(F)CNC[C@@H](Nc2nccc(-c3cccnc3Oc3cc(F)c(NS(=O)(=O)Cc4ccccc4)c(F)c3F)n2)C1 | 1.56 |

Test system: not listed separately
Assay: Bioavailability in CD-1 mouse at 10 mg/kg, po or 1 mg/kg, iv measured upto 24 hrs by LC-MS/MS analysis
Assay type: ADME, organism-based
Details: in vivo

| SMILES | bioavailability [%] |
| --- | --- |
| O=S(=O)(Cc1ccccc1)Nc1c(F)cc(Oc2ncccc2-c2ccnc(N[C@@H]3CNC[C@@H](F)C3)n2)c(F)c1F | 149 |
| C[C@@]1(F)CNC[C@@H](Nc2nccc(-c3cccnc3Oc3cc(F)c(NS(=O)(=O)Cc4ccccc4)c(F)c3F)n2)C1 | 109 |

Test system: not listed separately
Assay: Toxicity in Sprague-Dawley rat assessed as decrease in thymus weight at 500 mg/kg, po administered twice daily for 7 days
Assay type: organism-based
Details: in vivo, 168 h, time 7 day

| SMILES | Activity |
| --- | --- |
| O=S(=O)(Cc1ccccc1)Nc1c(F)cc(Oc2ncccc2-c2ccnc(N[C@@H]3CNC[C@@H](F)C3)n2)c(F)c1F | Toxic |

Test system: not listed separately
Assay: Toxicity in Sprague-Dawley rat assessed as decrease in thymic lymphoid depletion at 500 mg/kg, po administered twice daily for 7 days
Assay type: organism-based
Details: in vivo, 168 h, time 7 day

| SMILES | Activity |
| --- | --- |
| O=S(=O)(Cc1ccccc1)Nc1c(F)cc(Oc2ncccc2-c2ccnc(N[C@@H]3CNC[C@@H](F)C3)n2)c(F)c1F | Toxic |

Test system: not listed separately
Assay: Cmax in Sprague-Dawley rat at 500 mg/kg, po administered twice daily for 7 days
Assay type: ADME, organism-based
Details: in vivo, time 7 day

| SMILES | Cmax [µg/mL] |
| --- | --- |
| O=S(=O)(Cc1ccccc1)Nc1c(F)cc(Oc2ncccc2-c2ccnc(N[C@@H]3CNC[C@@H](F)C3)n2)c(F)c1F | 104 |

Test system: not listed separately
Assay: AUC in Sprague-Dawley rat at 500 mg/kg, po administered twice daily for 7 days
Assay type: ADME, organism-based
Details: in vivo, time 7 day

| SMILES | AUC at 168 h [µg·h/mL] |
| --- | --- |
| O=S(=O)(Cc1ccccc1)Nc1c(F)cc(Oc2ncccc2-c2ccnc(N[C@@H]3CNC[C@@H](F)C3)n2)c(F)c1F | 909 |

Test system: not listed separately
Assay: Cmax in Sprague-Dawley rat at >= 150 mg/kg, po administered twice daily for 7 days
Assay type: ADME, organism-based
Details: in vivo, time 7 day

| SMILES | Cmax [µg/mL] |
| --- | --- |
| O=S(=O)(Cc1ccccc1)Nc1c(F)cc(Oc2ncccc2-c2ccnc(N[C@@H]3CNC[C@@H](F)C3)n2)c(F)c1F | 28.9 |

Test system: not listed separately
Assay: AUC in Sprague-Dawley rat at >= 150 mg/kg, po administered twice daily for 7 days
Assay type: ADME, organism-based
Details: in vivo, time 7 day

| SMILES | AUC at 168 h [µg·h/mL] |
| --- | --- |
| O=S(=O)(Cc1ccccc1)Nc1c(F)cc(Oc2ncccc2-c2ccnc(N[C@@H]3CNC[C@@H](F)C3)n2)c(F)c1F | 170 |

Target: T1, Serine/threonine-protein kinase/endoribonuclease IRE1
Assay: Inhibition of IRE1alpha in human KMS-11 cells assessed as reduction in XBP1 splicing preincubated for 24 hrs followed by thapsigargin addition and measured after 30 mins by luminescence assay
Assay type: cell-based
Details: not given

| SMILES | pIC50 |
| --- | --- |
| O=S(=O)(Cc1ccccc1)Nc1c(F)cc(Oc2ncccc2-c2ccnc(N[C@@H]3CNC[C@@H](F)C3)n2)c(F)c1F | 7.19 |

Same assay, conditions: time 24.5 hrs

| SMILES | IC90 [nM] |
| --- | --- |
| O=S(=O)(Cc1ccccc1)Nc1c(F)cc(Oc2ncccc2-c2ccnc(N[C@@H]3CNC[C@@H](F)C3)n2)c(F)c1F | 650 |

Target: T1, Serine/threonine-protein kinase/endoribonuclease IRE1
Assay: Inhibition of IRE1alpha in human KMS-11 cells assessed as reduction in XBP1 splicing preincubated for 24 hrs followed by thapsigargin addition and measured after 30 mins under FCS medium by luminescence assay
Assay type: cell-based
Details: not given

| SMILES | pIC50 |
| --- | --- |
| O=S(=O)(Cc1ccccc1)Nc1c(F)cc(Oc2ncccc2-c2ccnc(N[C@@H]3CNC[C@@H](F)C3)n2)c(F)c1F | 8.10 |

Same assay, conditions: time 24.5 hrs

| SMILES | IC90 [nM] |
| --- | --- |
| O=S(=O)(Cc1ccccc1)Nc1c(F)cc(Oc2ncccc2-c2ccnc(N[C@@H]3CNC[C@@H](F)C3)n2)c(F)c1F | 79 |

Target: T1, Serine/threonine-protein kinase/endoribonuclease IRE1
Assay: Inhibition of IRE1alpha RNase activity (unknown origin) using XBP1 as substrate preincubated for 1 hr followed by thapsigargin stimulation for 5 hrs under FCS medium by One-Glo luciferase reagent based luminescence assay
Details: not given
Target sequence in this assay (O75460 whole entry): as above

| SMILES | pIC50 |
| --- | --- |
| O=S(=O)(Cc1ccccc1)Nc1c(F)cc(Oc2ncccc2-c2ccnc(N[C@@H]3CNC[C@@H](F)C3)n2)c(F)c1F | 8.40 |

Test system: Mus musculus
Assay: In vivo inhibition of IRE1alpha in SCID mouse xenografted with human KMS-11 cells assessed as suppression of XBP1 level in tumor at 250 mg/kg, po BID measured upto 12 hrs
Assay type: functional, organism-based
Details: not given

| SMILES | inhibition |
| --- | --- |
| O=S(=O)(Cc1ccccc1)Nc1c(F)cc(Oc2ncccc2-c2ccnc(N[C@@H]3CNC[C@@H](F)C3)n2)c(F)c1F | Active |

Test system: Mus musculus
Assay: In vivo inhibition of IRE1alpha in SCID mouse xenografted with human KMS-11 cells assessed as suppression of XBP1 level in tumor at 250 mg/kg, po BID measured after 16 to 24 hrs
Assay type: functional, organism-based
Details: time 16-24 hrs

| SMILES | inhibition |
| --- | --- |
| O=S(=O)(Cc1ccccc1)Nc1c(F)cc(Oc2ncccc2-c2ccnc(N[C@@H]3CNC[C@@H](F)C3)n2)c(F)c1F | inactive |
